Assay results: patent publication US8080529B2, “Macrolides with anti-inflammatory activity” (Glaxo Group Limited, priority 2005, dated 2011)
Read-outs that look alike come from different tables or passages of the source.

How the values were obtained:
Type in all cases: cell-based
[1] = system: TNF-α; experiment: Inhibition of TNF-α production by stimulated human peripheral blood leukocytes in vitro; settings: for inhibition at 10 µM / inhibition at 50 µM: Homo sapiens, Leukocyte, read-out: Percentage of inhibition of TNF-α production
Method: (§1) Test substances used in in vitro experiments were dissolved in dimethyl sulfoxide (DMSO) (Kemika, Croatia) at concentrations of 50 mM and 10 mM, and were further diluted to final concentrations of 50 μM and 10 μM in 1 mL Dulbecco's modified Eagle medium (DMEM) supplemented with 1% heat inactivated fetal bovine serum (FBS), 1% L-glutamine, 50 U/ml penicillin, 50 μg/ml streptomycin and 2.5 μg/mL Fungizone (amphotericin B). Media and all media supplements were purchased from Gibco, Australia, except the FBS was purchased from Sigma, USA.
(§2) Peripheral blood leukocytes (PBL) were obtained from venous blood of healthy volunteers by sedimentation on 2% dextran T-500 (Amersham Biosciences, USA) and subsequent centrifugations of leukocyte rich plasma.
(§3) Peripheral blood leukocytes (PBL), isolated as described above, were seeded in a 48-well plate at a concentration of 3 to 5×10^6 cell per well in culture medium consisting of RPMI 1640 medium (Institute of Immunology, Croatia) supplemented with 10% heat-inactivated fetal calf serum (FCS, Biowhittaker, USA), 100 U/ml penicillin (Gibco, Australia), 100 μg/ml streptomycin (Gibco, Australia) and 2 mM L-glutamine (Gibco, Australia), and preincubated with the test compounds for 2 h at 37° C., in an atmosphere of 5% CO2, and 90% humidity. Then, stimuli (Sigma, USA) were added to a final concentration of 2 μg/mL lipopolysaccharide (LPS), 1 μg/mL phorbol 12-myristate 13-acetate (PMA) or 120 μg/mL zymosan. Samples were incubated overnight under conditions described above. At the end of incubation, the supernatants were transferred to eppendorf tubes and centrifuged for 10 min at 1500×g. Concentrations of human TNF-α, IL-1β, IL-6 and IL-8 were determined in cell supernatants by sandwich ELISA, using capture and detection antibodies (R&D Systems, Minneapolis, Minn.) according to the manufacturer's recommendations.
(§4) Inhibition (as percentage) was calculated using the following formula: % inhibition=(1−concentration of cytokines in sample/concentration of cytokines in positive control)×100.
(§5) The positive control refers to LPS-, PMA- or zymosan-stimulated samples that were not preincubated with test compounds.

[2] = system: IL-1α; experiment: Inhibition of IL-1 production by stimulated human peripheral blood leukocytes in vitro; settings: for inhibition at 10 µM / inhibition at 50 µM: Homo sapiens, Leukocyte, read-out: Percentage of inhibition of IL-1α production
[3] = system: IL-8; experiment: Inhibition of IL-8 production by stimulated human peripheral blood leukocytes in vitro; settings: for inhibition at 10 µM / inhibition at 50 µM: Homo sapiens, Leukocyte, read-out: Percentage of inhibition of IL-8 production
Method: as §1, §2, §3, §4, §5

[4] = system: IL-6; experiment: Inhibition of IL-6 production by stimulated human peripheral blood leukocytes in vitro; settings: for inhibition at 10 µM / inhibition at 50 µM: Homo sapiens, Leukocyte, read-out: Percentage of inhibition of IL-6 production
Method: as §1, §2, §3, §4, §5

With CC[C@H]1OC(=O)[C@H](C)[C@@H](O[C@H]2C[C@@](C)(OC)[C@@H](OCCCN(CC)CC)[C@H](C)O2)[C@H](C)[C@@H](O[C@@H]2O[C@H](C)C[C@H](N(C)C)[C@H]2O)[C@](C)(O)C[C@@H](C)CN(C)[C@H](C)[C@@H](O)[C@]1(C)O [Example 96, 4″-O-(3-diethylamino-propyl)-azithromycin] the inhibition at 10 µM ([1]; 10 μM, LPS-stimulated PBL) was 3%, the inhibition at 10 µM ([1]; 10 μM, PMA-stimulated PBL) was 14% and the inhibition at 10 µM ([1]; 10 μM, zymosan-stimulated PBL) was 21%. For the same compound, the inhibition at 50 µM ([1]; 50 μM, LPS-stimulated PBL) was 13%, the inhibition at 50 µM ([1]; 50 μM, PMA-stimulated PBL) was 48% and the inhibition at 50 µM ([1]; 50 μM, zymosan-stimulated PBL) was 61%. The inhibition at 10 µM ([2]; 10 μM, LPS-stimulated PBL) was 0%, the inhibition at 10 µM ([2]; 10 μM, PMA-stimulated PBL) was 32% and the inhibition at 10 µM ([2]; 10 μM, zymosan-stimulated PBL) was 36%. The inhibition at 50 µM ([2]; 50 μM, LPS-stimulated PBL) was 0%, the inhibition at 50 µM ([2]; 50 μM, PMA-stimulated PBL) was 81% and the inhibition at 50 µM ([2]; 50 μM, zymosan-stimulated PBL) was 88%. For the same compound, the inhibition at 10 µM ([3]; 10 μM, LPS-stimulated PBL) was 0%, the inhibition at 10 µM ([3]; 10 μM, PMA-stimulated PBL) was 0% and the inhibition at 10 µM ([3]; 10 μM, zymosan-stimulated PBL) was 6%. It also gave an inhibition at 50 µM ([3]; 50 μM, LPS-stimulated PBL) of 17%, an inhibition at 50 µM ([3]; 50 μM, PMA-stimulated PBL) of 12% and an inhibition at 50 µM ([3]; 50 μM, zymosan-stimulated PBL) of 40%. It also gave an inhibition at 10 µM ([4]; 10 μM, LPS-stimulated PBL) of 0%, an inhibition at 10 µM ([4]; 10 μM, PMA-stimulated PBL) of 27% and an inhibition at 10 µM ([4]; 10 μM, zymosan-stimulated PBL) of 17%. The inhibition at 50 µM ([4]; 50 μM, LPS-stimulated PBL) was 3%, the inhibition at 50 µM ([4]; 50 μM, PMA-stimulated PBL) was 64% and the inhibition at 50 µM ([4]; 50 μM, zymosan-stimulated PBL) was 76%.

CCC1OC(=O)C(C)C(OC2CC(C)(OC)C(OCCCN3CCN(CCN(CC)CC)CC3)C(C)O2)C(C)C(OC2OC(C)CC(N(C)C)C2O)C(C)(O)CC(C)CN(C)C(C)C2OC(=O)OC12C (stereo not drawn) [Example 97, 4″-O-{3-[4-(2-Diethylamino-ethyl)-piperazin-1-yl]-propyl}azithromycin 11,12-cyclic carbonate] was tested, and the “Percentage of inhibition of TNF-α production” value ([1]; 10 μM, LPS-stimulated PBL) was 0%, the “Percentage of inhibition of TNF-α production” value ([1]; 10 μM, PMA-stimulated PBL) was 31% and the “Percentage of inhibition of TNF-α production” value ([1]; 10 μM, zymosan-stimulated PBL) was 43%. The “Percentage of inhibition of TNF-α production” value ([1]; 50 μM, LPS-stimulated PBL) was 62%, the “Percentage of inhibition of TNF-α production” value ([1]; 50 μM, PMA-stimulated PBL) was 57% and the “Percentage of inhibition of TNF-α production” value ([1]; 50 μM, zymosan-stimulated PBL) was 69%. The “Percentage of inhibition of IL-1α production” value ([2]; 10 μM, LPS-stimulated PBL) was 0%, the “Percentage of inhibition of IL-1α production” value ([2]; 10 μM, PMA-stimulated PBL) was 57% and the “Percentage of inhibition of IL-1α production” value ([2]; 10 μM, zymosan-stimulated PBL) was 49%. For the same compound, the “Percentage of inhibition of IL-1α production” value ([2]; 50 μM, LPS-stimulated PBL) was 0%, the “Percentage of inhibition of IL-1α production” value ([2]; 50 μM, PMA-stimulated PBL) was 79% and the “Percentage of inhibition of IL-1α production” value ([2]; 50 μM, zymosan-stimulated PBL) was 34%. The “Percentage of inhibition of IL-8 production” value ([3]; 10 μM, LPS-stimulated PBL) was 0%, the “Percentage of inhibition of IL-8 production” value ([3]; 10 μM, PMA-stimulated PBL) was 4% and the “Percentage of inhibition of IL-8 production” value ([3]; 10 μM, zymosan-stimulated PBL) was 10%. For the same compound, the “Percentage of inhibition of IL-8 production” value ([3]; 50 μM, LPS-stimulated PBL) was 23%, the “Percentage of inhibition of IL-8 production” value ([3]; 50 μM, PMA-stimulated PBL) was 29% and the “Percentage of inhibition of IL-8 production” value ([3]; 50 μM, zymosan-stimulated PBL) was 34%. For the same compound, the “Percentage of inhibition of IL-6 production” value ([4]; 10 μM, LPS-stimulated PBL) was 0%, the “Percentage of inhibition of IL-6 production” value ([4]; 10 μM, PMA-stimulated PBL) was 32% and the “Percentage of inhibition of IL-6 production” value ([4]; 10 μM, zymosan-stimulated PBL) was 9%. The “Percentage of inhibition of IL-6 production” value ([4]; 50 μM, LPS-stimulated PBL) was 14%, the “Percentage of inhibition of IL-6 production” value ([4]; 50 μM, PMA-stimulated PBL) was 51% and the “Percentage of inhibition of IL-6 production” value ([4]; 50 μM, zymosan-stimulated PBL) was 56%.
